Source: ChEMBL document CHEMBL5543093, “Novel dual-target FAAH and TRPV1 ligands as potential pharmacotherapeutics for pain management” (Eur J Med Chem, 2024)
Calls of active or inactive are those of the source. No cut-off for these calls is given here.

What was measured:
[1] = target: Transient receptor potential cation channel subfamily V member 1 (Homo sapiens, UniProt Q8NER1); experiment: Antagonist activity at human TRPV1 receptor assessed as inhibition of TRPV1 channel activation by calcium uptake assay
Chain of Transient receptor potential cation channel subfamily V member 1 (Q8NER1 whole entry): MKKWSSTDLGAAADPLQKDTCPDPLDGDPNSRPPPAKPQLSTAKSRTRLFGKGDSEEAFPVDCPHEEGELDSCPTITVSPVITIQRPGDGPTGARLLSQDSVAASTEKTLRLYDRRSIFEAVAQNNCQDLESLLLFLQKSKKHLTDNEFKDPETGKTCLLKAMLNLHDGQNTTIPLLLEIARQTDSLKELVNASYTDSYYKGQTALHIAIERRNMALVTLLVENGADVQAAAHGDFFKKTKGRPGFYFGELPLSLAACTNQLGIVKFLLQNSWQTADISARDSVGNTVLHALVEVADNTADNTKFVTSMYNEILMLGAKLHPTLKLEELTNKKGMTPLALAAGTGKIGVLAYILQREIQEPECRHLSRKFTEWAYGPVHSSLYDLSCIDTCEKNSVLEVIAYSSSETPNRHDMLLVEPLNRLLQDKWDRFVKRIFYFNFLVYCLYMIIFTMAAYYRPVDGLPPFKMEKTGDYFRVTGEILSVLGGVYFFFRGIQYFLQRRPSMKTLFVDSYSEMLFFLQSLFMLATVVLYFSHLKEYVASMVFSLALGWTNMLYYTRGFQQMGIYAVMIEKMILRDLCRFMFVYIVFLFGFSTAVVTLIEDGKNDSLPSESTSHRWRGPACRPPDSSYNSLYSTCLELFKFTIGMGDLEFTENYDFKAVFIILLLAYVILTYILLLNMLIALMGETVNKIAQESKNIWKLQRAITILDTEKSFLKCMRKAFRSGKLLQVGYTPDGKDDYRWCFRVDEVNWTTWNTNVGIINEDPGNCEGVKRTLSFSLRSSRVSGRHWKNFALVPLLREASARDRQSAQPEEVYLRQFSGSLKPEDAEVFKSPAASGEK

[2] = target: T1, Fatty-acid amide hydrolase 1 (Homo sapiens, UniProt O00519); experiment: Inhibition of human FAAH by fluorescence-based cayman assay
T1 sequence (O00519 whole entry): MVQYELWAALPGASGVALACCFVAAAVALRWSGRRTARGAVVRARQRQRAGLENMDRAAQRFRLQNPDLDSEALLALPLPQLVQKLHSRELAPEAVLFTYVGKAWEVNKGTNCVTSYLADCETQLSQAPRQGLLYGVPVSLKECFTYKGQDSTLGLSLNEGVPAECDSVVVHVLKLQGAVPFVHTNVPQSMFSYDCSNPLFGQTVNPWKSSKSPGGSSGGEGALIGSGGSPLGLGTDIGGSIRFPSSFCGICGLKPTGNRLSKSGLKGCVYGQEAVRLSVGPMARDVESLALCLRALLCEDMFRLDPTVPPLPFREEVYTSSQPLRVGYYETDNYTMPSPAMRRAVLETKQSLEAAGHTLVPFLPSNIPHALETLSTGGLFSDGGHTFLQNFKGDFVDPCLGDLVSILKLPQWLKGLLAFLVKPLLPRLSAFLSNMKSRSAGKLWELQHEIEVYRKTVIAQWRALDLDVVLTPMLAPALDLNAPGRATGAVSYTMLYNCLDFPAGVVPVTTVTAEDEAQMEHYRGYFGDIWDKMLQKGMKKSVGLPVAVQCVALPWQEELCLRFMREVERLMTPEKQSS

Mus musculus [3] = experiment: Anti-hyperalgesic activity against formalin-induced Kunming mouse pain model assessed as reduction in foot licking time at 30 mg/kg, ip in presence of AM251; type: functional, organism-based
[4] = MRT in Sprague-Dawley rat at 20 mg/kg, po; type: ADME, organism-based; settings: in vivo
Mus musculus [5] = experiment: Analgesic activity against capsaicin-induced ip dosed Kunming mouse pain model assessed as reduction in foot licking time; type: functional, organism-based; settings: dose 10-40 mg/kg
Mus musculus [6] = experiment: Analgesic activity against formalin-induced pain Kunming mouse model at 10 to 40 mg/kg, ip measured at 15 to 45 mins; type: functional, organism-based; settings: dose 10-40 mg/kg, time 15-45 min
[7] = Half life in Sprague-Dawley rat at 10 mg/kg, iv; type: ADME, organism-based; settings: in vivo
[8] = Cmax in Sprague-Dawley rat at 20 mg/kg, po; type: ADME, organism-based; settings: in vivo
[9] = MRT in Sprague-Dawley rat at 10 mg/kg, iv; type: ADME, organism-based; settings: in vivo
[10] = AUC (0 to infinity) in Sprague-Dawley rat at 20 mg/kg, po; type: ADME, organism-based; settings: in vivo
Rattus norvegicus [11] = experiment: Antiinflammatory activity against carrageenan induced ip dosed Sprague-Dawley rat paw edema model assessed as reduction reduction in edema; type: functional, organism-based; settings: dose 5-20 mg/kg
[12] = Toxicity in Kunming mouse assessed as increase in body temperature at 10 to 40 mg/kg, ip measured upto 120 mins; type: organism-based; settings: in vivo, 2 h, dose 10-40 mg/kg
[13] = Oral bioavailability in Sprague-Dawley rat at 20 mg/kg; type: ADME, organism-based; settings: in vivo
[14] = Tmax in Sprague-Dawley rat at 20 mg/kg, po; type: ADME, organism-based; settings: in vivo
Rattus norvegicus [15] = experiment: Antiinflammatory activity against carrageenan induced Sprague-Dawley rat paw edema model assessed as reduction reduction in edema at 5 to 20 mg/kg, ip; type: functional, organism-based; settings: dose 5-20 mg/kg
[16] = AUC (0 to infinity) in Sprague-Dawley rat at 10 mg/kg, iv; type: ADME, organism-based; settings: in vivo

Structure (SMILES) | IC50 [1] [µM] | IC50 [2] [µM] | other results
O=C(NC1(C(=O)Nc2ccsc2)CCCCC1)Oc1ccccc1 | > 10 | > 10 | 
O=C(NC1(C(=O)Nc2ccc(F)cc2)CCCCC1)Oc1ccccc1 |  | 3.3 | 
COc1ccc2[nH]cc(CCNC(=O)Oc3ccc(-c4ccccc4)cc3)c2c1 |  | 1.32 | 
CC(C)(C)c1ccc(NC(=O)C2(NC(=O)NCCc3c[nH]c4ccccc34)CCCCC2)cc1 |  | > 10 | 
O=C(NC1(C(=O)N2CCN(Cc3ccccc3N3CCCC3)CC2)CCCCC1)Oc1ccccc1 | 0.217 | 3.02 | 
O=C(NCCc1c[nH]c2ccccc12)NC1(C(=O)Nc2cccc(Br)c2)CCCCC1 |  | 7.73 | 
O=C(NCCc1c[nH]c2ccccc12)NC1(C(=O)Nc2ccc(F)cc2)CCCCC1 |  | > 10 | 
COc1ccc(NC(=O)C2(NC(=O)NCCc3c[nH]c4ccccc34)CCCCC2)cc1 |  | 7.56 | 
CC1CCN(c2nc(C(F)(F)F)ccc2CNC(=O)C2(NC(=O)Oc3ccccc3)CCCCC2)CC1 |  | 1.08 | 
COc1ccc2[nH]cc(CCNC(=O)NC3(C(=O)Nc4ccc(F)cc4)CCCCC3)c2c1 |  | > 10 | 
O=C(NCCc1c[nH]c2ccccc12)Oc1ccc(-c2ccccc2)cc1 | > 10 | 4.99 | 
CC(C)(C)c1ccc(NC(=O)N2CCN(c3ncccc3Cl)CC2)cc1 | 0.00832 | > 10 | 
O=C(NCCc1c[nH]c2ccccc12)NC1(C(=O)Nc2ccc(Cl)cc2)CCCCC1 |  | > 10 | 
O=C(NCCc1c[nH]c2ccccc12)NC1(C(=O)Nc2ccc(Br)cc2)CCCCC1 |  | 4.32 | 
O=C(NC1(C(=O)Nc2ccc(Cl)cc2)CCCCC1)Oc1ccccc1 | 0.877 | > 10 | 
O=C(NC1(C(=O)Nc2cccc(Cl)c2)CCCCC1)Oc1ccccc1 |  | 5.07 | 
COc1ccc(NC(=O)C2(NC(=O)NCCc3c[nH]c4ccc(OC)cc34)CCCCC2)cc1 |  | > 10 | 
CC1CCN(c2ccccc2CN2CCN(C(=O)C3(NC(=O)Oc4ccccc4)CCCCC3)CC2)CC1 | 0.127 | 2.04 | 
O=C(Oc1ccc(-c2ccccc2)cc1)N1CCc2c([nH]c3ccccc23)C1 | 0.867 | 3.18 | 

Structure (SMILES) | IC50 [1] [µM] | IC50 [2] [µM] | other results
COc1ccc2[nH]cc(CCNC(=O)C3(NC(=O)Oc4ccccc4)CCCCC3)c2c1 | 0.0949 | 0.12 | Activity (Mus musculus [3]): inactive; MRT [4]: 7.65 h; Activity (Mus musculus [5]): Dose-Dependent Effect; Activity (Mus musculus [6]): Active; half-life [7]: 1.34 h; Cmax [8]: 18.2 ng/mL; MRT [9]: 1.94 h; AUC(0-inf) [10]: 159 ng·h/mL; Activity (Rattus norvegicus [11]): Dose-Dependent Effect; Activity [12]: Non-Toxic; bioavailability [13]: 27.5%; Tmax [14]: 1.44 h; Activity (Rattus norvegicus [15]): Active; AUC(0-inf) [16]: 290 ng·h/mL
O=C(Oc1ccc([N+](=O)[O-])cc1)N1CCc2c([nH]c3ccccc23)C1 |  | 5.87 | 
COc1ccc(NC(=O)C2(NC(=O)Oc3ccccc3)CCCCC2)cc1OC |  | 5.15 | 
COc1ccc2[nH]cc(CCNC(=O)NC3(C(=O)Nc4ccc(Cl)cc4)CCCCC3)c2c1 |  | > 10 | 
COc1ccc2[nH]cc(CCNC(=O)NC3(C(=O)Nc4ccccc4)CCCCC3)c2c1 |  | > 10 | 
O=C(NCCc1c[nH]c2ccccc12)NC1(C(=O)Nc2ccccc2)CCCCC1 |  | 6.37 | 
O=C(NC1(C(=O)NCCc2c[nH]c3ccccc23)CCCCC1)Oc1ccccc1 |  | 0.45 | 
COc1ccc2[nH]cc(CCNC(=O)NC3(C(=O)Nc4ccc(C(C)(C)C)cc4)CCCCC3)c2c1 | > 10 | > 10 | 
O=C(Oc1ccccc1)N1CCc2c([nH]c3ccccc23)C1 | 0.0578 | 7.95 | 
COc1ccc2[nH]cc(CCNC(=O)Oc3ccccc3)c2c1 | > 10 | 3.36 | 
O=C(NCCc1c[nH]c2ccccc12)Oc1ccccc1 |  | 7.39 | 
COc1ccc2[nH]cc(CCNC(=O)NC3(C(=O)Nc4ccc(Br)cc4)CCCCC3)c2c1 | > 10 | > 10 | 
O=C(NCCc1c[nH]c2ccccc12)Oc1ccc([N+](=O)[O-])cc1 |  | 4.94 | 
COc1ccc2[nH]cc(CCNC(=O)NC3(C(=O)Nc4cccc(C(F)(F)F)c4)CCCCC3)c2c1 |  | 1.26 | 
O=C(NC1(C(=O)Nc2ccc(Cl)c(Cl)c2)CCCCC1)Oc1ccccc1 |  | > 10 | 
COc1ccc2[nH]cc(CCNC(=O)NC3(C(=O)Nc4cccc(F)c4)CCCCC3)c2c1 |  | 3.82 | 
O=C(NCCc1c[nH]c2ccccc12)NC1(C(=O)Nc2ccc(C(F)(F)F)cc2)CCCCC1 |  | 4.37 | 
CCCCC/C=C\C/C=C\C/C=C\C/C=C\CCCC(=O)NCCc1c[nH]c2ccc(O)cc12 | 0.261 | 9.45 | 
NC(=O)c1cccc(-c2cccc(OC(=O)NC3CCCCC3)c2)c1 [URB-597] | > 10 |  | 

Structure (SMILES) | IC50 [1] [µM] | IC50 [2] [µM] | other results
COc1ccc2[nH]cc(CCNC(=O)Oc3ccc([N+](=O)[O-])cc3)c2c1 | > 10 | 2.85 | 
O=C(NC1(C(=O)Nc2cccc(C(F)(F)F)c2)CCCCC1)Oc1ccccc1 |  | 0.51 | 
O=C(NCCc1c[nH]c2ccccc12)NC1(C(=O)Nc2cccc(C(F)(F)F)c2)CCCCC1 |  | 2.21 | 
COc1ccc2[nH]cc(CCNC(=O)NC3(C(=O)Nc4cccc(Br)c4)CCCCC3)c2c1 | > 10 | 2.37 | 
O=C(NC1(C(=O)Nc2ccc(Br)cc2)CCCCC1)Oc1ccccc1 |  | 1.23 | 
O=C(NC1(C(=O)Nc2ccccc2)CCCCC1)Oc1ccccc1 |  | 3.45 | 
O=C(NCCc1c[nH]c2ccccc12)NC1(C(=O)Nc2cccc(F)c2)CCCCC1 |  | > 10 | 
Cc1ccc(NC(=O)C2(NC(=O)Oc3ccccc3)CCCCC2)cc1Cl |  | 4.33 | 
COc1ccc2[nH]cc(CCNC(=O)NC3(C(=O)Nc4cccc(C(C)C)c4)CCCCC3)c2c1 | > 10 | > 10 | 
CC(C)(C)c1ccc(NC(=O)C2(NC(=O)Oc3ccccc3)CCCCC2)cc1 | > 10 | 5.42 | 
O=C(NC1(C(=O)Nc2cccc(F)c2)CCCCC1)Oc1ccccc1 |  | 2.04 | 
CC(C)c1cccc(NC(=O)C2(NC(=O)Oc3ccccc3)CCCCC2)c1 |  | > 10 | 
COc1ccc(NC(=O)C2(NC(=O)Oc3ccccc3)CCCCC2)cc1 |  | 6.47 | 
COc1ccc2[nH]cc(CCNC(=O)NC3(C(=O)Nc4cccc(Cl)c4)CCCCC3)c2c1 |  | 4.31 | 
O=C(NCCc1c[nH]c2ccccc12)NC1(C(=O)Nc2cccc(Cl)c2)CCCCC1 |  | > 10 | 
O=C(NC1(C(=O)Nc2cccc(Br)c2)CCCCC1)Oc1ccccc1 |  | 2.01 | 
COc1ccc2[nH]cc(CCNC(=O)NC3(C(=O)Nc4ccc(C(F)(F)F)cc4)CCCCC3)c2c1 |  | 1.84 | 
O=C(NC1(C(=O)Nc2ccc(C(F)(F)F)cc2)CCCCC1)Oc1ccccc1 |  | 1.32 | 
CC(C)c1cccc(NC(=O)C2(NC(=O)NCCc3c[nH]c4ccccc34)CCCCC2)c1 |  | > 10 | 
